# Patent US7803831B2, “3-(2-hydroxy-phenyl)-1H-pyrazole-4-carboxylic acid amide derivatives as HSP90 inhibitors for the treatment of cancer” (Vernalis (Cambridge) Limited, priority 2002, dated 2010)
# Target: T1, yeast HSP90 (Saccharomyces cerevisiae, UniProt P02829)
# T1 construct: made in house; host or cells: E. coli
# Assay: Malachite green ATPase assay
# Format: biochemical
# Details: activity range
# Description: The intrinsic ATPase activity of HSP90 may be measured using yeast HSP90 as a model system. The assay, based on the use of malachite green for the measurement of inorganic phosphate, was used to test the HSP90 inhibitory activity of the compounds of the Examples herein.
# Malachite Green ATPase Assay
# Chemicals are of the highest purity commercially available and all aqueous solutions are made up in AR water. Because of the need to minimise contamination with inorganic phosphate, precautions should be taken with solutions and apparatus used in the assays. Glassware and pH meters are rinsed with double distilled or deionised water before use and, wherever possible, plastic ware should be used. Gloves are worn for all procedures. • (1) Greiner 384-well (Greiner 781101) or Costar 384-well flat-bottomed polystyrene multiwell plates (VWR). • (2) Assay buffer of (a) 100 mM Tris-HCl, pH 7.4, (b) 150 mM KCI, (c) 6 mM MgCl2. Stored at room temperature. • (3) 0.0812% (w/v) malachite green (M 9636, Sigma Aldrich Ltd., Poole, UK). Stored at room temperature. • (4) 2.32% (w/v) polyvinyl alcohol USP (P 1097, Sigma Aldrich Ltd, Poole, UK) in boiling water (see Comment 1), allowed to cool, and stored at room temperature. • (5) 5.72% (w/v) ammonium molybdate in 6 M hydrochloric acid. Stored at room temperature. • (6) 34% (w/v) sodium citrate. Stored at room temperature. • (7) 100 mM ATP, disodium salt, special quality (47699, Sigma Aldrich). Stored at −20° C. • (8) E. coli expressed yeast HSP90 protein, purified >95% (see, e.g., Panaretou et al., 1998) and stored in 50 uL aliquots at −80° C. Method • 1. Dilute test compounds to 500 μM in AR water (DMSO concentration will be 2.5%). Transfer 2.5 μl of these compounds directly from the daughter plate to the assay plate, giving a final assay concentration of 100 μM. To obtain 12 point IC50 values, perform serial dilutions 1:2 to produce a range of assay concentrations from 100 μM to 97.6 nM (2.5% DMSO), and transfer 2.5 μl of each concentration into the assay plate. Column 1 in the assay plate contains no compound, as a negative control. An additional row with no compound is also used as a background. • 2. Prepare ATP by diluting 100 mM stock to 925 μM with assay buffer, and aliquot 5 μl of diluted ATP to each well including controls (final assay concentration 370 μM). • 3. Add 5 μl of buffer to background row. • 4. Dilute enzyme preparation to 1.05 μM with assay buffer, and aliquot 5 μl into each compound well and to the negative control column. • 5. Collect the reagents to the bottom of the well, cover plate with plate seal and incubate overnight at 37 degC. • 6. First thing in the morning prepare the Malachite Green Reagent. Add 2 parts of Malachite Green Solution, 1 part of Polyvinyl Alcohol Solution, 1 part of Ammonium Molybdate Solution, and 2 parts of AR water. • 7. Invert to mix, and leave for approximately 1 hour until the colour turns from brown to golden yellow. • 8. Add 40 μl of Malachite Green Reagent to each well, allow 5 mins for colour to develop. • 9. Add 5 μl of Sodium Citrate Reagent to each well (see comment 2) • 10. Re-cover with plate seal and shake on plate shaker for at least 15 mins. • 11. Measure Absorbance at 620 nm using a suitable plate reader (e.g. Victor, Perkin Elmer Life Sciences, Milton Keynes, UK). […] Comments • (1) The polyvinyl alcohol dissolves in boiling water with difficulty and stirring for 2-3 h is required. • (2) The time interval between addition of the malachite green reagent and the sodium citrate should be kept as short as possible in order to reduce the non-enzymatic hydrolysis of ATP. Once the sodium citrate is added, the colour is stable for up to 4 h at room temperature. • (3) Compounds can be added to the assay plates using a Biomek FX Robot (Beckman Coulter).
# T1 sequence (P02829 whole entry, looked up): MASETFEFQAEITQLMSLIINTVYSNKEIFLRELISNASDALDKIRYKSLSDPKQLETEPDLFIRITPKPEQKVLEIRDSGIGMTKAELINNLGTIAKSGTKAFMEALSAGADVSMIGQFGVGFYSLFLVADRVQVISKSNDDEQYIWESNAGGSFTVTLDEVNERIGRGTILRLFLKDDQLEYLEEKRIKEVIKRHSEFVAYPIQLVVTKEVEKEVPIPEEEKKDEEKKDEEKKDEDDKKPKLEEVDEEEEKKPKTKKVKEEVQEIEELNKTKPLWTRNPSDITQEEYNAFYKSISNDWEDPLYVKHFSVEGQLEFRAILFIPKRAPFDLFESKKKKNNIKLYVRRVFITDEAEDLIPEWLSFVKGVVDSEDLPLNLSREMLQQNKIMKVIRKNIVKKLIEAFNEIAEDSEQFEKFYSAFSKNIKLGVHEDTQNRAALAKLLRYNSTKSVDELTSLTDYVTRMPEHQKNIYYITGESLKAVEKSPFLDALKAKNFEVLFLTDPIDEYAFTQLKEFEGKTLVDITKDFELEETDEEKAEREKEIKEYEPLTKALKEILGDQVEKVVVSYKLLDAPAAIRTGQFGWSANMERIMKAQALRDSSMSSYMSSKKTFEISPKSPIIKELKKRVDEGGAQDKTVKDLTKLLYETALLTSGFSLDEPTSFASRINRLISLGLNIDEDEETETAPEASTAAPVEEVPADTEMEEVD
row,SMILES,IC50 [µM]
1,O=C(Nc1ccccc1)c1c[nH]nc1-c1cc(Cl)c(O)cc1O [Example 2],> 50
2,O=C(c1c[nH]nc1-c1cc(Cl)c(O)cc1O)N1CCN(c2ccccc2)CC1 [Example 3],> 50
3,C=CCNC(=O)c1c[nH]nc1-c1cc(Cl)c(O)cc1O [Example 4],> 50
4,O=C(c1c[nH]nc1-c1cc(Cl)c(O)cc1O)N1CCOCC1 [Example 5],> 50
5,CN1CCN(C(=O)c2c[nH]nc2-c2cc(Cl)c(O)cc2O)CC1 [Example 6],> 50
6,O=C(NCCCN1CCOCC1)c1c[nH]nc1-c1cc(Cl)c(O)cc1O [Example 7],> 50
7,O=C(Nc1ccccn1)c1c[nH]nc1-c1cc(Cl)c(O)cc1O [Example 8],> 50
8,O=C(NCc1ccco1)c1c[nH]nc1-c1cc(Cl)c(O)cc1O [Example 9],< 50
9,O=C(NCCc1cccs1)c1c[nH]nc1-c1cc(Cl)c(O)cc1O [Example 10],< 50
10,O=C(NCCN1CCOCC1)c1c[nH]nc1-c1cc(Cl)c(O)cc1O [Example 11],> 50
11,O=C(NCCCO)c1c[nH]nc1-c1cc(Cl)c(O)cc1O [Example 12],> 50
12,O=C(Nc1ccc(O)cc1)c1c[nH]nc1-c1cc(Cl)c(O)cc1O [Example 13],< 50
13,COc1cccc(NC(=O)c2c[nH]nc2-c2cc(Cl)c(O)cc2O)c1 [Example 14],< 50
14,O=C(Nc1ccc2c(c1)OCCO2)c1c[nH]nc1-c1cc(Cl)c(O)cc1O [Example 15],< 50
15,O=C(Nc1ccc(O)c(O)c1)c1c[nH]nc1-c1cc(Cl)c(O)cc1O [Example 16],> 50
16,COc1ccc(NC(=O)c2c[nH]nc2-c2cc(Cl)c(O)cc2O)cc1 [Example 17],< 50
17,O=C(Nc1ccc(Cl)cc1)c1c[nH]nc1-c1cc(Cl)c(O)cc1O [Example 18],> 50

# Now from value to compound:
row,IC50 [µM],SMILES
1,> 50,CC(=O)Nc1ccc(NC(=O)c2c[nH]nc2-c2cc(Cl)c(O)cc2O)cc1 [Example 19]
2,< 50,COC(=O)c1ccc(NC(=O)c2c[nH]nc2-c2cc(Cl)c(O)cc2O)cc1 [Example 20]
3,< 50,NC(=O)c1ccc(NC(=O)c2c[nH]nc2-c2cc(Cl)c(O)cc2O)cc1 [Example 22]
4,> 50,O=C(NCc1ccccc1)c1c[nH]nc1-c1cc(Cl)c(O)cc1O [Example 23]
5,> 50,O=C(O)Cc1ccc(NC(=O)c2c[nH]nc2-c2cc(Cl)c(O)cc2O)cc1 [Example 24]
6,> 50,COc1ccc(N(C)C(=O)c2c[nH]nc2-c2cc(Cl)c(O)cc2O)cc1 [Example 25]
7,< 50,O=C(O)c1ccc(CNC(=O)c2c[nH]nc2-c2cc(Cl)c(O)cc2O)cc1 [Example 26]
8,< 50,Cc1ccc(CNC(=O)c2c[nH]nc2-c2cc(Cl)c(O)cc2O)cc1 [Example 27]
9,< 50,COc1ccc(CNC(=O)c2c[nH]nc2-c2cc(Cl)c(O)cc2O)cc1 [Example 28]
10,< 50,O=C(NCc1ccc(F)cc1)c1c[nH]nc1-c1cc(Cl)c(O)cc1O [Example 29]
11,< 50,O=C(NCc1ccc(Cl)cc1)c1c[nH]nc1-c1cc(Cl)c(O)cc1O [Example 30]
12,< 50,COc1cccc(CNC(=O)c2c[nH]nc2-c2cc(Cl)c(O)cc2O)c1 [Example 31]
13,< 50,O=C(NCc1cccc(C(F)(F)F)c1)c1c[nH]nc1-c1cc(Cl)c(O)cc1O [Example 32]
14,< 50,CS(=O)(=O)c1ccc(CNC(=O)c2c[nH]nc2-c2cc(Cl)c(O)cc2O)cc1 [Example 33]

# Tested on: not listed separately
# Assay: Sulforhodamine B (SRB) growth inhibition / cytotoxicity assay
# Format: cell-based
# Details: SRB growth arrest assay; cell line not stated
# Description: A growth inhibition assay was also employed for the evaluation of candidate HSP90 inhibitors:
# • 1) Determine cell number by haemocytometer. • 2) Using an 8 channel multipipettor, add 160 μl of the cell suspension (3600 cells/well or 2×10^4 cells/ml) to each well of a 96-well microtitre plate. • 3) Incubate overnight at 37° C. in a CO2 incubator. Day 2 • 4) Stock solutions of drugs are prepared, and serial dilutions of each drug are performed in medium to give final concentrations in wells. • 5) Using a multipipettor, 40 μl of drug (at 5× final concentration) is added to quadruplicate wells. • 6) Control wells are at either side of the 96 well plates, where 40 μl of medium is added. • 7) Incubate plates in CO2 incubator for 4 days (48 hours). Day 6 • 8) Tip off medium into sink and immerse plate slowly into 10% ice cold trichloroacetic acid (TCA). […] Leave for 15 mins. • 12) Wash off unbound SRB stain with four washes of 1% acetic acid. • 13) Dry plates in incubator. • 14) Solubilise SRB using 100 μl of 10 mM Tris base and put plates on plate shaker for 5 mins. • 15) Determine absorbance at 540 nm using a plate reader. Calculate mean absorbance for quadruplicate wells and express as a percentage of value for control, untreated wells. • 16) Plot % absorbance values versus log drug concentration and determine the IC50.
row,SMILES,IC50 [µM]
1,"CC(=O)c1ccc(NC(=O)c2c[nH]nc2-c2cc(Cl)c(O)cc2O)cc1 [Example 1, 3-(5-chloro-2,4-dihydroxy-phenyl)-1H-pyrazole-4-carboxylic acid (4-acetyl-phenyl)-amide]",> 50
